Test [1] concerns serotonin release from the hypothalamus. Description: Serotonin release from rat hypothalamus sections (HPLC). In kind it is cell-based.
Test [2] deals with glutamic acid release from the hippocampus. Description: Glutamic acid release from rat hippocampus sections (HPLC). In kind it is cell-based.
For test [3], the target named is T1, PKC-ε (Homo sapiens, UniProt Q02156).
T1 sequence (Q02156 1-737): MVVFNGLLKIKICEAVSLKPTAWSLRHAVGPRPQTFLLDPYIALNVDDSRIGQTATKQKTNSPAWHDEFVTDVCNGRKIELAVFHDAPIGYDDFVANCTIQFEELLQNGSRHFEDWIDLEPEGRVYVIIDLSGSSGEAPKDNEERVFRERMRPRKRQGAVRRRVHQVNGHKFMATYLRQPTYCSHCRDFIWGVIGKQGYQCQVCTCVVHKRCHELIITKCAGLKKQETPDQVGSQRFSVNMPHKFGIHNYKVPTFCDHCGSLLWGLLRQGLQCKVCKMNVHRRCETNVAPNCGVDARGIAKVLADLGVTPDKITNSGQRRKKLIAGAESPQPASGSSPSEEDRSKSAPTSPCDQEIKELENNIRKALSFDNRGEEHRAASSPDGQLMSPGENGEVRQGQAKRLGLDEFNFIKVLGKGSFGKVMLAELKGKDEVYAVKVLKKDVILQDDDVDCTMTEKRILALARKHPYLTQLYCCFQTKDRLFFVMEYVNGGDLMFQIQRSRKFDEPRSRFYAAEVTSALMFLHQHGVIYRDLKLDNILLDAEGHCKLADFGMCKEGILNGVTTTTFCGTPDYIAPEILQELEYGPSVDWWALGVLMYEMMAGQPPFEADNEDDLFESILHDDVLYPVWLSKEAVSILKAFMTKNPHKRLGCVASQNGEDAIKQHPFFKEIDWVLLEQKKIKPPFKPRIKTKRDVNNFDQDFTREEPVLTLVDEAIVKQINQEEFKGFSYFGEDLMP
Description: PKC assay in cell-free system with PKC isozymes. The class given is biochemical. The protocol: The PKC activity in a cell-free system was quantified by the method described in a publication [Kanno T et al., J Lipid Res 47 (6):1146-1156, 2006]. The summary is as described below.
Synthetic PKC substrate peptide (10 μM) was reacted with various PKC isozymes in a medium containing 20 mM Tris-HCl (pH 7.5), 5 mM Mg-acetate, 10 μM ATP and each DCP-LA optical isomer (10 μM) in the absence of phosphatidylserine and diacylglycerol at 30° C. for 5 min. When the activity with new types of PKC (PKC-δ, -ε, -η and -μ) was to be measured, a medium free of Ca^2+ was used and when the activity with other PKC isozyme was to be measured, a medium containing 100 μM Ca^2+ was used. After loading on reversed-phase HPLC (LC-10ATvp, Shimadzu Co., Kyoto, Japan), a substrate peptide peak and a new resultant product peak were detected at the absorbance of 214 nm. The areas of the non-phosphorylated and phosphorylated substrate peptides m were measured (total area corresponds to the concentration of PKC substrate peptide used), and the amount of phosphorylated substrate peptide was calculated. The phosphorylated substrate peptide level (pmol/l min) was used as an index of PKC activity.

The subject of test [4] is dopamine release from the striatum. As to the kind of experiment: Dopamine release from rat striatum sections (HPLC). In kind it is cell-based.
Test [5] deals with PKC activity of rat PC-12 cells. Description: Intracellular PKC assay in PC-12 cells. The class given is cell-based. The protocol:
According to the method described in a publication [Kanno T et al., J Lipid Res 47 (6):1146-1156, 2006], the PKC activity of rat PC-12 cells was assayed. The cells were treated with each DCP-LA optical isomer at 37° C. for 10 min. The treatment was performed in an extracellular solution [137 mM NaCl, 5.4 mM KCl, 10 mM MgCl2, 5 mM ethyleneglycol-bis(2-aminoethylether)-N,N,N′,N′-tetraacetic acid (EGTA), 0.3 mM Na2HPO4, 0.4 mM K2HPO4 and 20 mM 4-(2-hydroxyethyl)-1-piperazin-ethanesulfonic acid, pH 7.2]. Then, the cells were rinsed with 100 μl of phosphate-buffered saline (PBS) in the absence of Ca^2+, and incubated in an extracellular solution (50 μl) containing 50 μg/ml digitonin, 25 mM glycerol 2-phosphate, 200 μM ATP and 100 μM synthetic PKC substrate peptide (Pyr-Lys-Arg-Pro-Ser-Gln-Arg-Ser-Lys-Tyr-Leu (SEQ ID NO: 1); MW, 1,374; Pyr: […]) at 37° C. for 15 min. […] A substrate peptide peak and a new resultant product peak were detected at the absorbance of 214 nm (SPD-10Avp UV-VIS detector, Shimadzu Co., Kyoto, Japan). […] The molecular weight was calculated from the two standard spectra of bradykinin (MW 1060.2) and substance P (MW 1672.9).
The areas of the non-phosphorylated and phosphorylated substrate peptides were measured (total area corresponds to the concentration of PKC substrate peptide used). […]

On to `CCCCC[C@@H]1C[C@@H]1C[C@@H]1C[C@H]1CCCCCCCC(=O)O` [α,β-DCP-LA, 8-[(1R,2S)-2-{(1R,2R)-2-pentylcyclopropylmethyl}-cyclopropyl]octanoic acid], for which, in test [1] (100 nM, in the presence of nicotine (1 μM), FIG. 13), the “serotonin release stimulation action compared to the other optical isomers” value is listed as “remarkably high”. For the same compound, the “concentration at which serotonin release stimulation action reaches maximum (bell-shaped)” value in test [1] (rat hypothalamus sections, FIG. 14) is reported as “about 100 nM”. In addition, in test [1] (treated alone, FIG. 15), the “serotonin release, substance alone vs non-treated group” value is listed as “did not show a remarkable difference”. Besides, in test [1] (with nicotine (1 μM), FIG. 15), the “effect on serotonin release caused by nicotine” value was “remarkably enhanced”. The “glutamic acid release stimulation action compared to the other optical isomers” value in test [2] (100 nM, in the presence of nicotine (1 μM), FIG. 7) is reported as “remarkably high”. Also, in test [2] (rat hippocampus sections, FIG. 8), the “concentration at which glutamic acid release stimulation action reaches maximum (bell-shaped)” value is “about 100 nM”. The “glutamic acid release, substance alone vs non-treated group” value in test [2] (treated alone, FIG. 9) is listed as “did not show a remarkable difference”. In addition, the “effect on glutamic acid release caused by nicotine” value in test [2] (with nicotine (1 μM), FIG. 9) is given as “remarkably enhanced”. For the same compound, in test [3] (10 μM, absence of phosphatidylserine and diacylglycerol, FIG. 4), the “activation of PKC isozymes in cell-free system (selectivity)” value is “selective and direct activation of PKC-ε”. In addition, in test [3] (cell-free system, 10 μM, FIG. 6), the “PKC-ε activation action compared to the other optical isomers” value is “highest ability”. The “concentration at which the PKC activation action reaches maximum (bell-shaped)” value in test [3] (cell-free system, FIG. 5) is listed as “about 25 μM”; in test [5] (PC-12 cells, FIG. 2), “about 100 nM”. Also, in test [4] (100 nM, in the presence of nicotine (1 μM), FIG. 10), the “dopamine release stimulation action compared to the other optical isomers” value is recorded as “remarkably high”. Also, in test [4] (rat striatum sections, FIG. 11), the “concentration at which dopamine release stimulation action reaches maximum (bell-shaped)” value is “about 250 nM”. In test [4] (treated alone, FIG. 12), the “dopamine release, substance alone vs non-treated group” value is listed as “did not show a remarkable difference”. Moreover, in test [4] (with nicotine (1 μM), FIG. 12), the “effect on dopamine release caused by nicotine” value was “remarkably enhanced”. Besides, the “PKC activation action on PC-12 cells compared to the other optical isomers” value in test [5] (100 nM, 37° C., 10 min, FIG. 1) is recorded as “most strongly”.
